Measurements as given in patent US6608086B2, “Dihydropyridines and new uses thereof” (Synaptic Pharmaceutical Corporation, priority 1993, dated 2003).
Where a name gives a salt, the structure may show the parent alone.

Assays:
[1] = target: T1, α1C Human Adrenergic Receptor (Homo sapiens, UniProt P35348); assay: Radioligand binding, [3H]prazosin, cloned human α1C adrenergic receptor; conditions: cloned human receptor in LM(tk-) cell membranes, SEM and n in lines below; for Ki: read-out: pKi alpha-1 1c (converted)
T1 construct: The entire coding region of α1C (1401 bp); expressed in transfected cells
T1 sequence (P35348 1-466): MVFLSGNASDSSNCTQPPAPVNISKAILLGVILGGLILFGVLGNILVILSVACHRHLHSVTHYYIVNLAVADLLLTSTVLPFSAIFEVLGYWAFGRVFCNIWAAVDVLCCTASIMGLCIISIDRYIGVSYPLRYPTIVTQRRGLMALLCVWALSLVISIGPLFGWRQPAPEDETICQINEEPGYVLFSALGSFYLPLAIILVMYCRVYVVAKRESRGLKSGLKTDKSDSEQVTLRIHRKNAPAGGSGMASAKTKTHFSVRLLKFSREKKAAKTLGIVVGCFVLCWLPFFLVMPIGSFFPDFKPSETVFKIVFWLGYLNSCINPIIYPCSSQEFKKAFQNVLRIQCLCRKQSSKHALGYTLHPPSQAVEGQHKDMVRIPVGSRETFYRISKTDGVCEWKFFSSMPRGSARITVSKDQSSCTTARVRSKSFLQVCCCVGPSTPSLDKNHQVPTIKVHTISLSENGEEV
Procedure, shortened: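 Read-out is filter-retained [3H]prazosin (0.5 nM) bound to membranes of LM(tk−) cells stably carrying the human α1C receptor. Incubation ran 20 min at 37° C. at pH 7.5, with 10 μM phentolamine marking nonspecific binding.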

L-type calcium channel = target: T2, L-type calcium channel (Rattus norvegicus, UniProt P22002); assay: Competition binding of [3H]nitrendipine to membrane fragments of rat cardiac muscle; conditions: [3H]nitrendipine, rat cardiac muscle membranes, SEM and n in lines below; for Ki: read-out: pKi Ca (converted)
T2 construct: membrane fragments of rat cardiac muscle; from tissue; host or cells: rat cardiac muscle membranes

α2A receptor = target: T3, α2A receptor (Homo sapiens, UniProt P08913); assay: Competition binding, [3H]rauwolscine, human α2A receptor; conditions: [3H]rauwolscine, LM(tk-) cell line L-α2A, SEM and n in lines below; for Ki: read-out: pKi alpha-2 2a (converted)
T3 construct: host or cells: LM(tk-) cells, line L-α2A
T3 sequence (P08913 1-465): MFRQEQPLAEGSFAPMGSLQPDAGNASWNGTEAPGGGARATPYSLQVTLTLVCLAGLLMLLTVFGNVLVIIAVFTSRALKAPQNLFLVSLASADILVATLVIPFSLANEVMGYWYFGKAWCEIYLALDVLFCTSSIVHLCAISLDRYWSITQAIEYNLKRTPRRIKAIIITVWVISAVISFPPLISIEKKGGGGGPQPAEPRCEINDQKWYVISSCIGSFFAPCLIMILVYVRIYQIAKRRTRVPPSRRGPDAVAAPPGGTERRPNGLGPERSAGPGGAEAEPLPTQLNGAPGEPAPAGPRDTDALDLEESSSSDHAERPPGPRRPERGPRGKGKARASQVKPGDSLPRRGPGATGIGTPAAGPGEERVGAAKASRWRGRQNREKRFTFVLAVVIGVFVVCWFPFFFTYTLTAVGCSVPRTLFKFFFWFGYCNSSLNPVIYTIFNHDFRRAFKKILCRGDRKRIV
Procedure, shortened: (§1)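 Using 25 mM glycylglycine buffer at pH 7.6 (room temperature), membranes from LM(tk−) cells carrying α2A, α2B or α2C were competed against 0.5 nM [3H]rauwolscine to equilibrium. Separation was by GF/B filtration; phentolamine (10 μM) set nonspecific binding.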

α2C receptor = target: T4, α2C receptor (Homo sapiens, UniProt P18825); assay: Competition binding, [3H]rauwolscine, human α2C receptor; conditions: [3H]rauwolscine, LM(tk-) cell line L-α2C, SEM and n in lines below; for Ki: read-out: pKi alpha-2 2c (converted)
T4 construct: host or cells: LM(tk-) cells, line L-α2C
T4 sequence (P18825 1-462): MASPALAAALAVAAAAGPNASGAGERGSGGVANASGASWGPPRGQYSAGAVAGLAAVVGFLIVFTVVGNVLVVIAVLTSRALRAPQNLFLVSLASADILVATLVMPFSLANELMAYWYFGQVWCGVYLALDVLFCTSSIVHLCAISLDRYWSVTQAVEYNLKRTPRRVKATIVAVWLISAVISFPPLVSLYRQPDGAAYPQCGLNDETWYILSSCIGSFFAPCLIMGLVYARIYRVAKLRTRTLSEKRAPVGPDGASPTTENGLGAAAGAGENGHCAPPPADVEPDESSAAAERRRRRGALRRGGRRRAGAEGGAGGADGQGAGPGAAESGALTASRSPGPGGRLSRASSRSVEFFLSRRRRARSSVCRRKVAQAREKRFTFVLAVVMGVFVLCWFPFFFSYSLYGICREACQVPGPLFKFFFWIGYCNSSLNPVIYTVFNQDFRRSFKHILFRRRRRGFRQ
Procedure, shortened: as §1

T2 sequence (P22002 whole entry, other chains not shown, the tested form may be a part): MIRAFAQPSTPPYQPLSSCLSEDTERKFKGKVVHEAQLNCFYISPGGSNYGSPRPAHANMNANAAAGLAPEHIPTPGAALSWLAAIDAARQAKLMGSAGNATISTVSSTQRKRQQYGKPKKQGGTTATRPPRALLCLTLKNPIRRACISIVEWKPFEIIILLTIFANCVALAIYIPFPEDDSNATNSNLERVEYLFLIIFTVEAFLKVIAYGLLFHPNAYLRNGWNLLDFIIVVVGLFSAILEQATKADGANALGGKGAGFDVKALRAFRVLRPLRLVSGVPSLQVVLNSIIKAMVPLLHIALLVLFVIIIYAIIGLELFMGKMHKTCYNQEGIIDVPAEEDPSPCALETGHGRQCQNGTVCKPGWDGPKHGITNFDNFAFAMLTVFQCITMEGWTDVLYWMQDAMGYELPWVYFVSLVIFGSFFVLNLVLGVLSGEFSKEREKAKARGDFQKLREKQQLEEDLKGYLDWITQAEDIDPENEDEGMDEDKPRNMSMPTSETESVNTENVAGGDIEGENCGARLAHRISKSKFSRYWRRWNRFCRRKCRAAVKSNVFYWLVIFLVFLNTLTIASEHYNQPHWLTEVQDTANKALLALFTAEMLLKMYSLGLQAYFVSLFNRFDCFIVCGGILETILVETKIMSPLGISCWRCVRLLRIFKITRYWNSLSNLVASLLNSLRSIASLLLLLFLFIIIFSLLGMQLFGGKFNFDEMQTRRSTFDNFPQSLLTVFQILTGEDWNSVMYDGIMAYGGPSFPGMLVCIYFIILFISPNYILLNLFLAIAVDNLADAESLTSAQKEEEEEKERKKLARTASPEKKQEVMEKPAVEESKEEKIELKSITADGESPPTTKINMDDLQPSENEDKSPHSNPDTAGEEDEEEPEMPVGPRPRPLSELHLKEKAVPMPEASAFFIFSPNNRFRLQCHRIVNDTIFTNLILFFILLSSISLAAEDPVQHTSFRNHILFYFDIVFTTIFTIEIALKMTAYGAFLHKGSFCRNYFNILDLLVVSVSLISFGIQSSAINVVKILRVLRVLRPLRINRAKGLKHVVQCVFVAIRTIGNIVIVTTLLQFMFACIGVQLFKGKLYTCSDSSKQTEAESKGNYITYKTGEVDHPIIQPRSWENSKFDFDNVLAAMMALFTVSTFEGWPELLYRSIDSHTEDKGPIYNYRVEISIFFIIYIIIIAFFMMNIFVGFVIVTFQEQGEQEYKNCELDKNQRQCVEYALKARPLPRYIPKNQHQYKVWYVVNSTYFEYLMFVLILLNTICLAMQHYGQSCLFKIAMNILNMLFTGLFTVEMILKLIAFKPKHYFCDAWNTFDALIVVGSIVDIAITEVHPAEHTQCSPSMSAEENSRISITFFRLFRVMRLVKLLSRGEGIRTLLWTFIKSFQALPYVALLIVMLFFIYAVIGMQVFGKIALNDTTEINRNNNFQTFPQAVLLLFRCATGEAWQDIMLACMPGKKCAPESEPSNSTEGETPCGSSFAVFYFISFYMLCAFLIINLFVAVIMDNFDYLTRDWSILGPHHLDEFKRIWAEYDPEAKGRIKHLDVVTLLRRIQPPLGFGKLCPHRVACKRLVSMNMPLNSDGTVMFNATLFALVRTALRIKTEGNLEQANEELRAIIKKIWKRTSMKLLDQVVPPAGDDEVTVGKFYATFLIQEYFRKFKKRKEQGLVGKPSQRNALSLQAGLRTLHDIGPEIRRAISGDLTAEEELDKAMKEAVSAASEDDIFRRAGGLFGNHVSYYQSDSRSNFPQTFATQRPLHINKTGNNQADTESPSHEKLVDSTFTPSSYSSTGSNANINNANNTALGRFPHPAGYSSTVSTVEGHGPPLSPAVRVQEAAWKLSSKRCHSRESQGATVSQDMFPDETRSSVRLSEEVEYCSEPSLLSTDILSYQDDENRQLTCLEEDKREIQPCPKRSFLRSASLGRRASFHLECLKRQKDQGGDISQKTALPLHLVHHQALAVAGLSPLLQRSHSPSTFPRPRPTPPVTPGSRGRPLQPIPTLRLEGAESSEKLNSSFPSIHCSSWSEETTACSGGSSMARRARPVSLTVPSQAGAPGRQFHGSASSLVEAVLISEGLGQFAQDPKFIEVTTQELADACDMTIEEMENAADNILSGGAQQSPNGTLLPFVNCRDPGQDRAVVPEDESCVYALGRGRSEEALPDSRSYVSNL
T2 sequence (P54290 25-944 partner limits assumed, other chains not shown): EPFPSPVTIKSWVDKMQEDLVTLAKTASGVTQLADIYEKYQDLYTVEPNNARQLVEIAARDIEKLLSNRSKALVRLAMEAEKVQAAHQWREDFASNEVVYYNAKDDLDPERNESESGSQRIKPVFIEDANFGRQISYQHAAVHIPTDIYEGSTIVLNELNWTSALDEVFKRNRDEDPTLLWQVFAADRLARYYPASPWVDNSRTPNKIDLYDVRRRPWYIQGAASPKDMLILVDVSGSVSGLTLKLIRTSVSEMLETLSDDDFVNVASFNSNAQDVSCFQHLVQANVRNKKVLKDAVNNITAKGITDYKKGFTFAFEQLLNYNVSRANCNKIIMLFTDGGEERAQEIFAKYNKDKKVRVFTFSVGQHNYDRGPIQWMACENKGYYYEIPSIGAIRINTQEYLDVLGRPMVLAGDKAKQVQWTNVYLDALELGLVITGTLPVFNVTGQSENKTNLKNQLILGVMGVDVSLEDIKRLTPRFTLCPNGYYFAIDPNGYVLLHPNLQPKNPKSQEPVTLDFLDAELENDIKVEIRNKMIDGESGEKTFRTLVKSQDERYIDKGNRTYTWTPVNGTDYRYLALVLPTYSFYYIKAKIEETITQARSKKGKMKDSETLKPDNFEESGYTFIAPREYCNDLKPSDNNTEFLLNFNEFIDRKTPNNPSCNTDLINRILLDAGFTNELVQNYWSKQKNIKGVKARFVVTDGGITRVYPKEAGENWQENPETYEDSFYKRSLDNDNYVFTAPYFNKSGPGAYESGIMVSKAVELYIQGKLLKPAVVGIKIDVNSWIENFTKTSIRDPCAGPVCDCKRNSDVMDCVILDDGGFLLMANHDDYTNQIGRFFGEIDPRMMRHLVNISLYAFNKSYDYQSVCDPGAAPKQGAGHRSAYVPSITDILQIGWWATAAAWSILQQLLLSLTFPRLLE
T2 sequence (P54290 945-1091 partner limits assumed, other chains not shown): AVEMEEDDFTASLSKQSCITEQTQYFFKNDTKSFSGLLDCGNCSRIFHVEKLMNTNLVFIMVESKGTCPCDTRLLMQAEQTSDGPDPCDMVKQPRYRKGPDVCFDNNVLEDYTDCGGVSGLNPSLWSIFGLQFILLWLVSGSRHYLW

Row | Compound | Ki [1] | Ki (L-type calcium channel) | Ki (α2A receptor) | Ki (α2C receptor) | pKi alpha-1 1c [1] | pKi Ca (L-type calcium channel) | pKi alpha-2 2a (α2A receptor) | pKi alpha-2 2c (α2C receptor)
1 | COc1cc2c(cc1OC)CN(CCCNC(=O)C1=C(C)NC(C)=C(C(N)=O)C1c1ccc([N+](=O)[O-])cc1)CC2 (centres unmarked) [Example 58, 5-Carboxamido-1,4-dihydro-3-{N-[3-(1,2,3,4-tetrahydro-6,7-dimethoxyisoquinolin-2-yl)propyl]}carboxamido-2,6-dimethyl-4-(4-nitrophenyl)pyridine hydrochloride] | 331 nM | 166000 nM | 8.32 nM | 50.1 nM | – | – | – | –
2 | COC(=O)C1=C(C)NC(c2ccoc2)=C(C(=O)NCCCN2CCC(c3ccccc3)CC2)C1c1ccc([N+](=O)[O-])cc1 (centres unmarked) [Example 65, 2-(Furan-3-yl)-1,4-dihydro-5-methoxycarbonyl-6-methyl-4-(4-nitrophenyl)-5-{N-[3-(4-phenylpiperidin-1-yl)propyl]}carboxamidopyridine hydrochloride hydrate] | 1.05 nM | 3090 nM | 200 nM | 83.2 nM | – | – | – | –
3 | CC1=C(C(N)=O)C(c2ccc([N+](=O)[O-])cc2)C(C(=O)NC2CCN(Cc3ccccc3)CC2)=C(c2ccoc2)N1.Cl.O (centres unmarked) [Example 66] | – | – | – | – | 6.59 | 6.22 | 5.53 | 6.24
4 | CCC1=C(C(=O)NCCCN2CCC(c3ccccc3)CC2)C(c2ccc([N+](=O)[O-])cc2)C(C(=O)OC)=C(C)N1 (centres unmarked) [Example 74, 2-Ethyl-1,4-dihydro-5-methoxycarbonyl-6-methyl-4-(4-nitro)phenyl-3-(N-(3-(4-phenylpiperidin-1-yl)propyl)) carboxamidopyridine hydrochloride hydrate] | 0.501 nM | 5250 nM | 58.9 nM | 23.4 nM | – | – | – | –
5 | CCC1=C(C(=O)NC2CCN(Cc3ccccc3)CC2)C(c2ccc([N+](=O)[O-])cc2)C(C(=O)OC)=C(C)N1 (centres unmarked) [Example 75, 2-Ethyl-1,4-dihydro-5-methoxycarbonyl-6-methyl-4-(4-nitro)phenyl-3-(N-(N-phenylmethyl)piperidin-4-yl)carboxamidopyridine hydrochloride] | 794 nM | 3550 nM | 2880 nM | 1230 nM | – | – | – | –
6 | CCC1=C(C(=O)NCCCN2CCc3cc(OC)c(OC)cc3C2)C(c2ccc([N+](=O)[O-])cc2)C(C(N)=O)=C(C)N1.Cl.O (centres unmarked) [Example 76, 5-Carboxamido-2-ethyl-1,4-dihydro-3-(N-(3-(1,2,3,4-tetrahydro-6,7-dimethoxyisoquinolin-2-yl)propyl)) carboxamido-6-methyl-4-(4-nitro)phenylpyridine hydrochloride hydrate] | – | – | – | – | 6.63 | 5.49 | 6.96 | 7.70
7 | CCC1=C(C(=O)NCCCCN2CCC(c3ccccc3)CC2)C(c2ccc([N+](=O)[O-])cc2)C(C(N)=O)=C(C)N1.Cl.O (centres unmarked) [Example 77, 5-Carboxamido-2-ethyl-1,4-dihydro-6-methyl-4-(4-nitro)phenyl-3-(N-(4-(4-phenylpiperidin-1-yl)butyl))carboxamidopyridine hydrochloride hydrate] | – | – | – | – | 8.30 | 5.94 | 6.95 | 7.42
8 | COC(=O)C1=C(C)NC(c2ccccc2)=C(C(=O)NCCCN2CCC(c3ccccc3)CC2)C1c1ccc([N+](=O)[O-])cc1.Cl (centres unmarked) [Example 79, 1,4-Dihydro-5-methoxycarbonyl-6-methyl-4-(4-nitro)phenyl-2-phenyl-3-(N-(3-(4-phenylpiperidin-1-yl)propyl)) carboxamidopyridine hydrochloride] | – | – | – | – | 7.76 | 6.17 | 6.84 | 7.21
